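Dose response: 5 concentrations. Exposure: 48 h. Format: 96-well plates. Endpoint: linear interpolation; highest concentration if not reached. GI50: concentration for 50% inhibition of growth. TGI: total growth inhibition.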
How the values were obtained:
Test in all cases: NCI anticancer screen, dose series, 48 h
MOLT-4 leukemia = test system: MOLT-4 leukemia
OVCAR-5 ovarian = test system: OVCAR-5 ovarian
SNB-75 CNS = test system: SNB-75 CNS
EKVX NSCLC = test system: EKVX NSCLC
T-47D breast = test system: T-47D breast
UACC-257 melanoma = test system: UACC-257 melanoma
SK-MEL-5 melanoma = test system: SK-MEL-5 melanoma
A498 renal = test system: A498 renal
LOX IMVI melanoma = test system: LOX IMVI melanoma
DU-145 prostate = test system: DU-145 prostate
K-562 leukemia = test system: K-562 leukemia
UO-31 renal = test system: UO-31 renal
MDA-MB-435 = test system: MDA-MB-435
MDA-MB-231 breast = test system: MDA-MB-231 breast
NCI-H460 lung = test system: NCI-H460 lung
PC-3 prostate = test system: PC-3 prostate
ACHN renal = test system: ACHN renal
SK-OV-3 ovarian = test system: SK-OV-3 ovarian
HOP-92 NSCLC = test system: HOP-92 NSCLC
SF-268 CNS = test system: SF-268 CNS
HCT-15 colon = test system: HCT-15 colon
HS 578T breast = test system: HS 578T breast
A549 NSCLC = test system: A549 NSCLC
COLO 205 colon = test system: COLO 205 colon
CCRF-CEM leukemia = test system: CCRF-CEM leukemia
CAKI-1 renal = test system: CAKI-1 renal
HT29 colon = test system: HT29 colon
OVCAR-4 ovarian = test system: OVCAR-4 ovarian
NCI-H23 lung = test system: NCI-H23 lung
SW-620 colon = test system: SW-620 colon
UACC-62 melanoma = test system: UACC-62 melanoma
HCT-116 colon = test system: HCT-116 colon
NCI-H226 lung = test system: NCI-H226 lung
IGROV1 ovarian = test system: IGROV1 ovarian
NCI-H522 lung = test system: NCI-H522 lung
OVCAR-3 ovarian = test system: OVCAR-3 ovarian
NCI/ADR-RES ovarian = test system: NCI/ADR-RES ovarian
RPMI-8226 leukemia = test system: RPMI-8226 leukemia
OVCAR-8 ovarian = test system: OVCAR-8 ovarian
HCC-2998 colon = test system: HCC-2998 colon
HOP-62 NSCLC = test system: HOP-62 NSCLC
SR leukemia = test system: SR leukemia
MCF7 breast = test system: MCF7 breast
MALME-3M melanoma = test system: MALME-3M melanoma
BT-549 breast = test system: BT-549 breast
U251 CNS = test system: U251 CNS
786-0 renal = test system: 786-0 renal
SF-295 CNS = test system: SF-295 CNS
KM12 colon = test system: KM12 colon
SN12C renal = test system: SN12C renal
SK-MEL-28 melanoma = test system: SK-MEL-28 melanoma
RXF 393 renal = test system: RXF 393 renal
M14 melanoma = test system: M14 melanoma
SNB-19 CNS = test system: SNB-19 CNS
HL-60(TB) leukemia = test system: HL-60(TB) leukemia
TK-10 renal = test system: TK-10 renal
SF-539 CNS = test system: SF-539 CNS
SK-MEL-2 melanoma = test system: SK-MEL-2 melanoma
MDA-N = test system: MDA-N

`COc1cc2ncn(-c3cc(OCc4ccccc4S(C)(=O)=O)c(C#N)s3)c2cc1OC` was tested, and the GI50 (MOLT-4 leukemia) was greater than 25 µM, the TGI (MOLT-4 leukemia) was greater than 25 µM and the GI50 (OVCAR-5 ovarian) was greater than 25 µM. The TGI (OVCAR-5 ovarian) was greater than 25 µM, the GI50 (SNB-75 CNS) was 8.19 µM and the TGI (SNB-75 CNS) was greater than 22.6 µM. For the same compound, the GI50 (EKVX NSCLC) was greater than 25 µM, the TGI (EKVX NSCLC) was greater than 25 µM and the GI50 (T-47D breast) was greater than 25 µM. It also gave a TGI (T-47D breast) greater than 25 µM, a GI50 (UACC-257 melanoma) greater than 25 µM and a TGI (UACC-257 melanoma) greater than 25 µM. It also gave a GI50 (SK-MEL-5 melanoma) greater than 25 µM, a TGI (SK-MEL-5 melanoma) greater than 25 µM and a GI50 (A498 renal) greater than 25 µM. It also gave a TGI (A498 renal) greater than 25 µM, a GI50 (LOX IMVI melanoma) greater than 25 µM and a TGI (LOX IMVI melanoma) greater than 25 µM. The GI50 (DU-145 prostate) was greater than 25 µM, the TGI (DU-145 prostate) was greater than 25 µM and the GI50 (K-562 leukemia) was greater than 25 µM. The TGI (K-562 leukemia) was greater than 25 µM, the GI50 (UO-31 renal) was greater than 25 µM and the TGI (UO-31 renal) was greater than 25 µM. The GI50 (MDA-MB-435) was greater than 25 µM, the TGI (MDA-MB-435) was greater than 25 µM and the GI50 (MDA-MB-231 breast) was greater than 25 µM. It also gave a TGI (MDA-MB-231 breast) greater than 25 µM, a GI50 (NCI-H460 lung) greater than 25 µM and a TGI (NCI-H460 lung) greater than 25 µM. It also gave a GI50 (PC-3 prostate) greater than 25 µM, a TGI (PC-3 prostate) greater than 25 µM and a GI50 (ACHN renal) greater than 25 µM. The TGI (ACHN renal) was greater than 25 µM, the GI50 (SK-OV-3 ovarian) was greater than 16.1 µM and the TGI (SK-OV-3 ovarian) was greater than 25 µM. For the same compound, the GI50 (HOP-92 NSCLC) was greater than 14.2 µM, the TGI (HOP-92 NSCLC) was greater than 25 µM and the GI50 (SF-268 CNS) was greater than 22.7 µM. The TGI (SF-268 CNS) was greater than 25 µM, the GI50 (HCT-15 colon) was greater than 25 µM and the TGI (HCT-15 colon) was greater than 25 µM. For the same compound, the GI50 (HS 578T breast) was greater than 17.9 µM, the TGI (HS 578T breast) was greater than 25 µM and the GI50 (A549 NSCLC) was greater than 25 µM. It also gave a TGI (A549 NSCLC) greater than 25 µM, a GI50 (COLO 205 colon) greater than 25 µM and a TGI (COLO 205 colon) greater than 25 µM. The GI50 (CCRF-CEM leukemia) was greater than 25 µM, the TGI (CCRF-CEM leukemia) was greater than 25 µM and the GI50 (CAKI-1 renal) was greater than 25 µM. The TGI (CAKI-1 renal) was greater than 25 µM, the GI50 (HT29 colon) was greater than 25 µM and the TGI (HT29 colon) was greater than 25 µM. The GI50 (OVCAR-4 ovarian) was greater than 25 µM, the TGI (OVCAR-4 ovarian) was greater than 25 µM and the GI50 (NCI-H23 lung) was greater than 25 µM. For the same compound, the TGI (NCI-H23 lung) was greater than 25 µM, the GI50 (SW-620 colon) was greater than 25 µM and the TGI (SW-620 colon) was greater than 25 µM. The GI50 (UACC-62 melanoma) was greater than 25 µM, the TGI (UACC-62 melanoma) was greater than 25 µM and the GI50 (HCT-116 colon) was greater than 25 µM. It also gave a TGI (HCT-116 colon) greater than 25 µM, a GI50 (NCI-H226 lung) greater than 25 µM and a TGI (NCI-H226 lung) greater than 25 µM. For the same compound, the GI50 (IGROV1 ovarian) was greater than 25 µM, the TGI (IGROV1 ovarian) was greater than 25 µM and the GI50 (NCI-H522 lung) was greater than 25 µM. It also gave a TGI (NCI-H522 lung) greater than 25 µM, a GI50 (OVCAR-3 ovarian) greater than 25 µM and a TGI (OVCAR-3 ovarian) greater than 25 µM. The GI50 (NCI/ADR-RES ovarian) was greater than 25 µM, the TGI (NCI/ADR-RES ovarian) was greater than 25 µM and the GI50 (RPMI-8226 leukemia) was greater than 25 µM. The TGI (RPMI-8226 leukemia) was greater than 25 µM, the GI50 (OVCAR-8 ovarian) was greater than 23.1 µM and the TGI (OVCAR-8 ovarian) was greater than 25 µM. The GI50 (HCC-2998 colon) was greater than 25 µM, the TGI (HCC-2998 colon) was greater than 25 µM and the GI50 (HOP-62 NSCLC) was greater than 10.8 µM. For the same compound, the TGI (HOP-62 NSCLC) was greater than 20.8 µM, the GI50 (SR leukemia) was greater than 25 µM and the TGI (SR leukemia) was greater than 25 µM. The GI50 (MCF7 breast) was greater than 25 µM, the TGI (MCF7 breast) was greater than 25 µM and the GI50 (MALME-3M melanoma) was greater than 25 µM. For the same compound, the TGI (MALME-3M melanoma) was greater than 25 µM, the GI50 (BT-549 breast) was greater than 25 µM and the TGI (BT-549 breast) was greater than 25 µM. It also gave a GI50 (U251 CNS) greater than 22.3 µM, a TGI (U251 CNS) greater than 25 µM and a GI50 (786-0 renal) greater than 25 µM. It also gave a TGI (786-0 renal) greater than 25 µM, a GI50 (SF-295 CNS) greater than 25 µM and a TGI (SF-295 CNS) greater than 25 µM. For the same compound, the GI50 (KM12 colon) was greater than 25 µM, the TGI (KM12 colon) was greater than 25 µM and the GI50 (SN12C renal) was greater than 25 µM. The TGI (SN12C renal) was greater than 25 µM, the GI50 (SK-MEL-28 melanoma) was greater than 25 µM and the TGI (SK-MEL-28 melanoma) was greater than 25 µM. The GI50 (RXF 393 renal) was greater than 14.9 µM, the TGI (RXF 393 renal) was greater than 25 µM and the GI50 (M14 melanoma) was greater than 25 µM. For the same compound, the TGI (M14 melanoma) was greater than 25 µM, the GI50 (SNB-19 CNS) was 15.1 µM and the TGI (SNB-19 CNS) was greater than 25 µM. It also gave a GI50 (HL-60(TB) leukemia) greater than 25 µM, a TGI (HL-60(TB) leukemia) greater than 25 µM and a GI50 (TK-10 renal) greater than 25 µM. The TGI (TK-10 renal) was greater than 25 µM, the GI50 (SF-539 CNS) was greater than 25 µM and the TGI (SF-539 CNS) was greater than 25 µM. The GI50 (SK-MEL-2 melanoma) was greater than 23.4 µM and the TGI (SK-MEL-2 melanoma) was greater than 25 µM.
Compound `O=C1/C(=C/c2ccco2)NC(=S)N1CN1CCOCC1` has a TGI (MOLT-4 leukemia) greater than 100 µM, a TGI (OVCAR-5 ovarian) greater than 100 µM and a TGI (SNB-75 CNS) greater than 100 µM. It also gave a TGI (EKVX NSCLC) greater than 100 µM, a TGI (UACC-257 melanoma) greater than 100 µM and a TGI (SK-MEL-5 melanoma) greater than 100 µM. For the same compound, the TGI (A498 renal) was greater than 100 µM, the TGI (LOX IMVI melanoma) was greater than 100 µM and the TGI (DU-145 prostate) was greater than 100 µM. The TGI (K-562 leukemia) was greater than 100 µM, the TGI (UO-31 renal) was greater than 100 µM and the TGI (MDA-MB-435) was greater than 100 µM. The TGI (MDA-MB-231 breast) was greater than 100 µM, the TGI (PC-3 prostate) was greater than 100 µM and the TGI (ACHN renal) was greater than 100 µM. It also gave a TGI (SK-OV-3 ovarian) greater than 100 µM, a TGI (HOP-92 NSCLC) greater than 100 µM and a TGI (SF-268 CNS) greater than 100 µM. For the same compound, the TGI (HCT-15 colon) was greater than 100 µM, the TGI (HS 578T breast) was greater than 100 µM and the TGI (A549 NSCLC) was greater than 100 µM. For the same compound, the TGI (COLO 205 colon) was greater than 100 µM, the TGI (CCRF-CEM leukemia) was greater than 100 µM and the TGI (HT29 colon) was greater than 100 µM. The TGI (OVCAR-4 ovarian) was greater than 100 µM, the TGI (NCI-H23 lung) was greater than 100 µM and the TGI (SW-620 colon) was greater than 100 µM. The TGI (UACC-62 melanoma) was greater than 100 µM, the TGI (HCT-116 colon) was greater than 100 µM and the TGI (NCI-H226 lung) was greater than 100 µM. The TGI (IGROV1 ovarian) was greater than 100 µM, the TGI (OVCAR-3 ovarian) was greater than 100 µM and the TGI (NCI/ADR-RES ovarian) was greater than 100 µM. It also gave a TGI (RPMI-8226 leukemia) greater than 100 µM, a TGI (OVCAR-8 ovarian) greater than 100 µM and a TGI (HOP-62 NSCLC) greater than 100 µM. The TGI (SR leukemia) was greater than 100 µM, the TGI (MDA-N) was greater than 100 µM and the TGI (MCF7 breast) was greater than 100 µM. The TGI (U251 CNS) was greater than 100 µM, the TGI (786-0 renal) was greater than 100 µM and the TGI (SF-295 CNS) was greater than 100 µM. It also gave a TGI (KM12 colon) greater than 100 µM, a TGI (SN12C renal) greater than 100 µM and a TGI (SK-MEL-28 melanoma) greater than 100 µM. The TGI (M14 melanoma) was greater than 100 µM, the TGI (SNB-19 CNS) was greater than 100 µM and the TGI (TK-10 renal) was greater than 100 µM. It also gave a TGI (SK-MEL-2 melanoma) greater than 100 µM.

Source: PubChem BioAssay (NCI)
